For 22 compounds, IC50 results are on record in US8937077B2, “Bicyclic diamines as janus kinase inhibitors” (Merck Sharp & Dohme Corp., priority 2010, dated 2015).

T1 sequence (P23458 875-1153 limits assumed): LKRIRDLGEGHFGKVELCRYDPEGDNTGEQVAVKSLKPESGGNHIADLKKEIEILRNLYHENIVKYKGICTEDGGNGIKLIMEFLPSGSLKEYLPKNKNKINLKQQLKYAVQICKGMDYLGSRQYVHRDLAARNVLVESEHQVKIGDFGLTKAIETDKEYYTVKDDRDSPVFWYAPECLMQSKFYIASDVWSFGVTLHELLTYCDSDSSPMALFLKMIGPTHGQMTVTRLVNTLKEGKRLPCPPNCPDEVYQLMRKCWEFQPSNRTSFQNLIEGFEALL

One assay concerns the target T1, Jak1 (Homo sapiens, UniProt P23458).
T1 construct: using a recombinant purified GST-tagged catalytic domain for each enzyme; GST; purchased Invitrogen M4290
Description: Jak Biochemical HTRF Assay (Jak1). The following applies: IC50 class, recombinant GST-tagged catalytic domain, read-out: Jak1 activity. The source says: Compounds of formula I can be prepared according to the general procedures described in the Schemes and Examples herein, using appropriate materials. Representative compounds of the present invention are exemplified herein below. The compounds exemplified are not, however, to be construed as limiting the scope of the invention in any manner. The examples further illustrate details for the preparation of the compounds of the present invention. Those skilled in the art will readily understand that known variations of protecting groups, of reagents, as well as of the conditions and processes of the following preparative procedures, can be used to prepare these compounds. It is also understood that whenever a chemical reagent is not commercially available, such a chemical reagent can be readily prepared by those skilled in the art by either following or adapting known methods described in the literature or described herein. Chiral analogs were prepared via incorporation of chiral reagents or obtained after chiral chromatography separation of a racemically generated analog. All temperatures are degrees Celsius unless otherwise noted. Mass spectra (MS) were measured either by electrospray ion-mass spectroscopy (ESMS) or by atmospheric pressure chemical ionization mass spectroscopy (APCI). Jak1 data were obtained using the in vitro assay described below.
Jak Biochemical HTRF Assay Protocol
The ability of compounds to inhibit the activity of Jak1, Jak2, Jak3, and Tyk2 was measured using a recombinant purified GST-tagged catalytic domain for each enzyme (Invitrogen Jak1 #M4290, […]) in an HTRF format biochemical assay. The reactions employed a common peptide substrate, LCB-EQEDEPEGDYFEWLW-NH2 (in-house). The basic assay protocol is as follows: First, […] of diluted compounds in DMSO were dispensed into the wells of a dry 384-well Black plate (Greiner #781076) using a Labcyte Echo 555 acoustic dispenser. Subsequent reagent additions employed an Agilent Bravo. Next, 18 μL, of 1.11X enzyme and 1.11X substrate in 1X assay buffer (Invitrogen kinase buffer #PV3189, 2 mM DTT, 0.05% BSA) were added to the wells and shaken and then preincubated for 30 minutes at room temperature to allow compound binding to equilibrate. After equilibration, 2 μL of 10X ATP in 1X assay buffer was added to initiate the kinase reaction and the plates were shaken and then incubated at room temperature for 120 minutes. At the end of the incubation, 20 μL of 2X stop buffer (streptavidin-Dylight (Thermo #21845), Eu-tagged pY20 antibody (Perkin Elmer #AD0067), EDTA, HEPES, and Triton) was added to quench the reaction. Plates were shaken and centrifuged and then incubated 60 minutes at room temperature and then read on a Perkin Elmer Envision (λex=337 nm, λem=665 and 615 nm, TRF delay time=20 μs). HTRF signal=10,000*665 nm reading/615 nm reading. After normalization to untreated controls, the percent inhibition of the HTRF signal at each compound concentration was calculated. The plot of percent inhibition versus the log of compound concentration was fit with a 4-parameter dose response equation to calculate IC50 values.
On the technique in general: Time-resolved FRET reads energy transfer from a long-lived donor to a nearby acceptor.
Take `O=C(OCCn1ccc2ccccc21)N1CCC[C@@H]2[C@H]1CCN2c1ncnc2[nH]ccc12` [Example 3-45, 2-(1H-indol-1-yl)ethyl (3aR,7aR)-1-(7H-pyrrolo[2,3-d]pyrimidin-4-yl)octahydro-4H-pyrrolo[3,2-b]pyridine-4-carboxylate]: the IC50 lay in the range of 0.01 to 0.1 µM.
Same read-out and setting: in the case of `O=C(OCC1CCCCC1)N1CCC[C@@H]2[C@H]1CCN2c1ncnc2[nH]ccc12` [Example 3-46, cyclohexylmethyl (3aR,7aR)-1-(7H-pyrrolo[2,3-d]pyrimidin-4-yl)octahydro-4H-pyrrolo[3,2-b]pyridine-4-carboxylate] it was 0.01 to 0.1 µM; in that of `O=C(OCCCc1ccccc1)N1CCC[C@@H]2[C@H]1CCN2c1ncnc2[nH]ccc12` [Example 3-47, 3-phenylpropyl (3aR,7aR)-1-(7H-pyrrolo[2,3-d]pyrimidin-4-yl)octahydro-4H-pyrrolo[3,2-b]pyridine-4-carboxylate], 0.001 to 0.01 µM.
On the same count and under the same terms, in the case of `O=C(OCCCc1cccnc1)N1CCC[C@@H]2[C@H]1CCN2c1ncnc2[nH]ccc12` [Example 3-48, 3-pyridin-3-ylpropyl (3 aR,7 aR)-1-(7H-pyrrolo[2,3-d]pyrimidin-4-yl)octahydro-4H-pyrrolo[3,2-b]pyridine-4-carboxylate] it was 0.01 to 0.1 µM; in that of `COC(=O)c1ccc(COC(=O)N2CCC[C@@H]3[C@H]2CCN3c2ncnc3[nH]ccc23)cc1` [Example 4, 4-(methoxycarbonyl)benzyl (3aR,7aR)-1-(7H-pyrrolo[2,3-d]pyrimidin-4-yl)octahydro-4H-pyrrolo[3,2-b]pyridine-4-carboxylate], 0.001 to 0.01 µM; in that of `COC(=O)c1ccc(COC(=O)N2CCC[C@H]3[C@@H]2CCN3c2ncnc3[nH]ccc23)cc1` [Example 5, 4-(methoxycarbonyl)benzyl (3aS,7aS)-1-(7H-pyrrolo[2,3-d]pyrimidin-4-yl)octahydro-4H pyrrolo[3,2-b]pyridine-4-carboxylate], 0.1 to 1 µM.
The same measure, in the same setting: in the case of `O=C(O)c1ccc(COC(=O)N2CCC[C@@H]3[C@H]2CCN3c2ncnc3[nH]ccc23)cc1` [Example 6, 4-[({[(3aR,7aR)-1-(7H-pyrrolo[2,3-d]pyrimidin-4-yl)octahydro-4H-pyrrolo[3,2-b]pyridine-4-yl]carbonyl}oxy)methyl]benzoic acid] it was 0.1 to 1 µM; in that of `CN(C)C(=O)c1ccc(COC(=O)N2CCC[C@@H]3[C@H]2CCN3c2ncnc3[nH]ccc23)cc1` [Example 7-1, 4-(dimethylcarbamoyl)benzyl (3aR,7aR)-1-(7H-pyrrolo[2,3-d]pyrimidin-4-yl)octahydro-4H-pyrrolo[3,2-b]pyrindine-4-carboxylate], 0.1 to 1 µM.
Take `NC(=O)c1ccc(COC(=O)N2CCC[C@@H]3[C@H]2CCN3c2ncnc3[nH]ccc23)cc1` [Example 7-2, 4-carbamoylbenzyl (3aR,7aR)-1-(7H-pyrrolo[2,3-d]pyrimidin-4-yl)octahydro-4H-pyrrolo[3,2-b]pyridine-4-carboxylate]: the IC50 lay within 0.01 to 0.1 µM.
On the same count and under the same terms, in the case of `CNC(=O)c1ccc(COC(=O)N2CCC[C@@H]3[C@H]2CCN3c2ncnc3[nH]ccc23)cc1` [Example 7-3, 4-(methylcarbamoyl)benzyl (3aR,7aR)-1-(7H-pyrrolo[2,3-d]pyrimidin-4-yl)octahydro-4H-pyrrolo[3,2-b]pyridine-4-carboxylate] it was 0.1 to 1 µM; in that of `CN(C)CCNC(=O)c1ccc(COC(=O)N2CCC[C@@H]3[C@H]2CCN3c2ncnc3[nH]ccc23)cc1` [Example 7-4, 4-{[2-(dimethylamino)ethyl]carbamoyl}benzyl (3aR,7aR)-1-(7H-pyrrolo[2,3-d]pyrimidin-4-yl)octahydro-4H-pyrrolo[3,2-b]pyridine-4-carboxylate], 0.1 to 1 µM.
The same measure, in the same setting: the figure for `CN(C)CCN(C)C(=O)c1ccc(COC(=O)N2CCC[C@@H]3[C@H]2CCN3c2ncnc3[nH]ccc23)cc1` [Example 7-5, 4-{[2-(dimethylamino)ethyl](methyl)carbamoyl}benzyl (3aR,7aR)-1-(7H-pyrrolo[2,3-d]pyrimidin-4-yl)octahydro-4H-pyrrolo[3,2-b]pyridine-4-carboxylate] is 0.1 to 1 µM.
Same read-out and setting: the figure for `CC(C)(C)OC(=O)NCc1ccc(COC(=O)N2CCC[C@@H]3[C@H]2CCN3c2ncnc3[nH]ccc23)cc1` [Example 8-1, 4-{[(tert-butoxycarbonyl)amino]methyl}benzyl(3aR,7aR)-1-(7H-pyrrolo[2,3-d]pyrimidin-4-yl)octahydro-4-pyrrolo[3,2-b]pyridine-4-carboxylate] is 0.1 to 1 µM; for `C[C@H](OC(=O)N1CCC[C@@H]2C1CCN2c1ncnc2[nH]ccc12)c1ccccc1` (stereo partly drawn) [Example 8-2, (1S)-1-phenylethyl (3aR,7 aR)-1-(7H-pyrrolo[2,3-d]pyrimidin-4-yl)octahydro-4-pyrrolo[3,2-b]pyridine-4-carboxylate] it is 0.01 to 0.1 µM.
On to `NCc1ccc(COC(=O)N2CCC[C@@H]3[C@H]2CCN3c2ncnc3[nH]ccc23)cc1` [Example 9, 4-(aminomethyl)benzyl (3aR,7aR)-1-(7H-pyrrolo[2,3-d]pyrimidin-4-yl)octahydro-4H-pyrrolo[3,2-b]pyridine-4-carboxylate], for which the IC50 was in the range of 0.1 to 1 µM.
The same measure, in the same setting: the figure for `O=C(OCc1ccc(CO)cc1)N1CCC[C@@H]2[C@H]1CCN2c1ncnc2[nH]ccc12` [Example 10, 4-(hydroxymethyl)benzyl (3aR,7aR)-1-(7H-pyrrolo[2,3-d]pyrimidin-4-yl)octahydro-4H-pyrrolo[3,2-b]pyridine-4-carboxylate] is 0.1 to 1 µM.
On the same count and under the same terms, the figure for `CC(C)(C)OC(=O)N1CCC[C@@H]2[C@H]1CCN2c1ncnc2[nH]ccc12` [Example 11, tert-butyl (3aR,7aR)-1-(7H-pyrrolo[2,3-d]pyrimidin-4-yl)octahydro-4H-pyrrolo[3,2-b]pyridin-4-carboxylate] is 0.1 to 1 µM; for `N#CCC(=O)N1CCCC2C1CCN2c1ncnc2[nH]ccc12` [Example 12, (3aS,7aS and 3aR,7aR) 3-oxo-3-[1-(7H-pyrrolo[2,3-d]pyrimidin-4-yl)octahydro-4H-pyrrolo[3,2-b]pyridin-4-yl]propanenitrile] it is 0.01 to 0.1 µM; for `COC(=O)c1ccc(CCCN2CCC[C@@H]3[C@H]2CCN3c2ncnc3[nH]ccc23)cc1` [Example 13, methyl 4-{3-[(3aR,7aR)-1-(7H-pyrrolo[2,3-d]pyrimidin-4-yl)octahydro-4H-pyrrolo[3,2-b]pyridin-4-yl]propyl}benzoate] it is 0.1 to 1 µM.
The same measure, in the same setting: in the case of `O=C(O)c1ccc(CCCN2CCC[C@@H]3[C@H]2CCN3c2ncnc3[nH]ccc23)cc1` [Example 14, 4-{3-[(3aR,7aR)-1-(7H-pyrrolo[2,3-d]pyrimidin-4-yl)octahydro-4H-pyrrolo[3,2-b]pyridin-4-yl]propyl}benzoic acid] it was 0.1 to 1 µM; in that of `Cc1cc2c(N3CCC4C3CCCN4C(=O)OCc3ccccc3)ncnc2[nH]1` [Example 15, (3aS,7aS and 3aR,7aR) benzyl 1-(6-methyl-7H-pyrrolo[2,3-d]pyrimidin-4-yl)octahydro-4H-pyrrolo[3,2-b]pyridine-4-carboxylate], 0.01 to 0.1 µM.
Turning to `O=C(OCc1ccccc1)N1CCC2C1CCCN2c1ncnc2[nH]ccc12` [Example 16, (3aS,7aS and 3aR,7aR) benzyl 4-(7H-pyrrolo[2,3-d]pyrimidin-4-yl)octahydro-1H-pyrrolo[3,2-b]pyridine-1-carboxylate], the IC50 lay within 0.01 to 0.1 µM.

The assay is the same for the next values; noted with them: recombinant GST-tagged catalytic domain, 31.8 μM ATP, read-out: Representative IC50 values.
For `COC(=O)c1ccc(COC(=O)N2CCC[C@@H]3[C@H]2CCN3c2ncnc3[nH]ccc23)cc1` [Example 4, 4-(methoxycarbonyl)benzyl (3aR,7aR)-1-(7H-pyrrolo[2,3-d]pyrimidin-4-yl)octahydro-4H-pyrrolo[3,2-b]pyridine-4-carboxylate], the IC50 was 0.002 µM.
Same read-out and setting: the figure for `N#CCC(=O)N1CCCC2C1CCN2c1ncnc2[nH]ccc12` [Example 12, (3aS,7aS and 3aR,7aR) 3-oxo-3-[1-(7H-pyrrolo[2,3-d]pyrimidin-4-yl)octahydro-4H-pyrrolo[3,2-b]pyridin-4-yl]propanenitrile] is 0.026 µM; for `COC(=O)c1ccc(CCCN2CCC[C@@H]3[C@H]2CCN3c2ncnc3[nH]ccc23)cc1` [Example 13, methyl 4-{3-[(3aR,7aR)-1-(7H-pyrrolo[2,3-d]pyrimidin-4-yl)octahydro-4H-pyrrolo[3,2-b]pyridin-4-yl]propyl}benzoate] it is 0.169 µM; for `O=C(OCc1ccccc1)N1CCC2C1CCCN2c1ncnc2[nH]ccc12` [Example 16, (3aS,7aS and 3aR,7aR) benzyl 4-(7H-pyrrolo[2,3-d]pyrimidin-4-yl)octahydro-1H-pyrrolo[3,2-b]pyridine-1-carboxylate] it is 0.031 µM.
